Test results taken from patent US10987293B2, “Composition for skin external application” (DR. RAYMOND LABORATORIES, INC., priority 2018, dated 2021).

System: fertilized eggs of the zebrafish
Assay: Developmental toxicity in zebrafish
Type: in vivo
Details: 1, 10, 100 μg/mL; 4 hours exposure; judged 24 and 48 hours after fertilization
Method: 4. Confirmation of Presence of Developmental Toxicity in Zebrafish
In this case, a 1% DMSO aqueous solution that was a stock solution was used as the control material.
Specifically, each of the samples was prepared at concentrations of 1, 10, and 100 μg/mL using the stock solution. After each of the samples was adjusted to these concentrations, fertilized eggs of the zebrafish were exposed to each of the samples for 4 hours. 24 hours after fertilization (20 hours after the exposure to each of the samples) and 48 hours after fertilization (44 hours after the exposure to each of the samples), it was judged whether or not the samples were toxic overall. In this case, the toxicity was evaluated based on the indicators divided into eight categories (Normal Development; Death; Coagulated Egg; Necrotic Tissue; Eye Development Alteration; Edema (Pericardial Edema); Tail Formation; and General Retardation).
That is, it was confirmed that the serinol-based compound according to the present invention had no developmental toxicity.

SMILES: CCCCCCCCCCCCCCCC(=O)NC(CO)CO [palmitoyl serinol]
- developmental toxicity (development of fertilized eggs): developed normally
